Data taken from ChEMBL document CHEMBL1201862, “PubChem BioAssay data set” (2004).
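1) Cells in 96-well plates. 2) Compound, 48 h, 5 concentrations. 3) Linear interpolation between surrounding doses. 4) Unreached endpoint = highest concentration. GI50 = concentration required for 50% inhibition of growth.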 The source made the active and inactive calls. Rule as the data show it: active = GI50 up to about 1.1 µM and inactive = higher.

What was measured:
Test in all cases: NCI anticancer screen, dose series, 48 h
CCRF-CEM = tested on: CCRF-CEM
HL-60 = tested on: HL-60
NCI-H226 = tested on: NCI-H226
A549 = tested on: A549
OVCAR-3 = tested on: OVCAR-3
RXF 393 = tested on: RXF 393
SN12C = tested on: SN12C
MDA-N = tested on: MDA-N
786-0 = tested on: 786-0
NCI/ADR-RES = tested on: NCI/ADR-RES
EKVX = tested on: EKVX
HOP-92 = tested on: HOP-92
NCI-H522 = tested on: NCI-H522
ACHN = tested on: ACHN
SK-OV-3 = tested on: SK-OV-3
OVCAR-5 = tested on: OVCAR-5
HCC 2998 = tested on: HCC 2998
Hs-578T = tested on: Hs-578T
HOP-62 = tested on: HOP-62
SF-268 = tested on: SF-268

SMILES	GI50 (CCRF-CEM)	GI50 (HL-60)	GI50 (NCI-H226)	GI50 (A549)	GI50 (OVCAR-3)	GI50 (RXF 393)	GI50 (SN12C)	GI50 (MDA-N)	GI50 (786-0)	GI50 (NCI/ADR-RES)	GI50 (EKVX)	GI50 (HOP-92)	GI50 (NCI-H522)	GI50 (ACHN)	GI50 (SK-OV-3)	GI50 (OVCAR-5)	GI50 (HCC 2998)	GI50 (Hs-578T)	GI50 (HOP-62)	GI50 (SF-268)
CC1(C)OC(CCC#N)CN1C(=O)OCc1ccccc1 (stereo not drawn)	> 100 µM (inactive)	> 100 µM (inactive)	23.6 µM (inactive)	> 100 µM (inactive)	> 100 µM (inactive)	> 100 µM (inactive)	> 10 µM (inactive)	> 100 µM (inactive)	> 100 µM (inactive)	> 100 µM (inactive)	> 100 µM (inactive)	> 100 µM (inactive)	75.2 µM (inactive)	> 100 µM (inactive)	> 100 µM (inactive)	> 100 µM (inactive)	> 100 µM (inactive)	–	–	–
O=C1/C(=C/c2ccccc2)N=C2Sc3c([nH]cnc3=O)N12	> 100 µM (inactive)	42.3 µM (inactive)	78.2 µM (inactive)	> 100 µM (inactive)	> 100 µM (inactive)	> 100 µM (inactive)	> 100 µM (inactive)	–	> 100 µM (inactive)	> 100 µM (inactive)	> 100 µM (inactive)	> 100 µM (inactive)	> 100 µM (inactive)	> 100 µM (inactive)	> 100 µM (inactive)	> 100 µM (inactive)	> 100 µM (inactive)	73.1 µM (inactive)	> 100 µM (inactive)	> 100 µM (inactive)
O=C(CSCC(=O)N/N=C/c1cc(I)cc(I)c1O)N/N=C/c1cc(I)cc(I)c1O	–	6.18 µM (inactive)	7.91 µM (inactive)	27.4 µM (inactive)	27 µM (inactive)	10.6 µM (inactive)	23.2 µM (inactive)	–	5.83 µM (inactive)	17.2 µM (inactive)	16 µM (inactive)	39.5 µM (inactive)	6.38 µM (inactive)	11.9 µM (inactive)	10.8 µM (inactive)	39.5 µM (inactive)	12.8 µM (inactive)	6.78 µM (inactive)	9.27 µM (inactive)	4.34 µM (inactive)
N#Cc1[nH]c(=S)[nH]c1N	> 100 µM (inactive)	> 100 µM (inactive)	> 100 µM (inactive)	> 100 µM (inactive)	> 100 µM (inactive)	> 100 µM (inactive)	> 100 µM (inactive)	–	> 100 µM (inactive)	> 100 µM (inactive)	> 100 µM (inactive)	> 100 µM (inactive)	> 100 µM (inactive)	> 100 µM (inactive)	> 100 µM (inactive)	> 100 µM (inactive)	> 100 µM (inactive)	2.99 µM (inactive)	> 100 µM (inactive)	> 100 µM (inactive)
COc1ccc(-c2c(C#N)c(S)n(NS(=O)(=O)c3ccc(C)cc3)c(=O)c2C#N)cc1	4.06 µM (inactive)	11.1 µM (inactive)	20 µM (inactive)	27.5 µM (inactive)	–	17.5 µM (inactive)	17.2 µM (inactive)	17.6 µM (inactive)	15.6 µM (inactive)	20.3 µM (inactive)	25.8 µM (inactive)	33.1 µM (inactive)	14.8 µM (inactive)	16.4 µM (inactive)	32.8 µM (inactive)	16.7 µM (inactive)	30.3 µM (inactive)	–	29.6 µM (inactive)	23.4 µM (inactive)
NN/C(=N\S(=O)(=O)c1cccc2nsnc12)Nc1ccc(Cl)cc1	> 100 µM (inactive)	9.98 µM (inactive)	> 100 µM (inactive)	> 100 µM (inactive)	> 100 µM (inactive)	> 100 µM (inactive)	> 100 µM (inactive)	> 100 µM (inactive)	> 100 µM (inactive)	> 100 µM (inactive)	> 100 µM (inactive)	> 100 µM (inactive)	–	> 100 µM (inactive)	> 100 µM (inactive)	> 100 µM (inactive)	–	–	> 100 µM (inactive)	26.2 µM (inactive)
c1cc(CN2CCNCCNCCNCC2)cc(CN2CCNCCNCCNCC2)c1	–	–	> 100 µM (inactive)	> 100 µM (inactive)	> 100 µM (inactive)	–	> 100 µM (inactive)	> 100 µM (inactive)	> 100 µM (inactive)	> 100 µM (inactive)	> 100 µM (inactive)	–	–	> 100 µM (inactive)	> 100 µM (inactive)	> 100 µM (inactive)	> 100 µM (inactive)	> 100 µM (inactive)	> 100 µM (inactive)	> 100 µM (inactive)
CCOc1ccc(NCC2CC/C(=C\C=C\c3ccccc3)C2=O)cc1 (stereo not drawn)	6.75 µM (inactive)	17.8 µM (inactive)	44.7 µM (inactive)	42.1 µM (inactive)	18 µM (inactive)	16.1 µM (inactive)	16.6 µM (inactive)	–	5.25 µM (inactive)	25.7 µM (inactive)	37.3 µM (inactive)	16.1 µM (inactive)	8.61 µM (inactive)	30.5 µM (inactive)	> 100 µM (inactive)	21.5 µM (inactive)	31.9 µM (inactive)	29 µM (inactive)	29.9 µM (inactive)	16.4 µM (inactive)
O=CNNC(=O)Nc1ccc(Cl)cc1	> 100 µM (inactive)	> 100 µM (inactive)	31.1 µM (inactive)	> 100 µM (inactive)	–	> 100 µM (inactive)	> 100 µM (inactive)	–	> 100 µM (inactive)	> 100 µM (inactive)	> 100 µM (inactive)	26.9 µM (inactive)	–	> 100 µM (inactive)	> 100 µM (inactive)	> 100 µM (inactive)	> 100 µM (inactive)	> 100 µM (inactive)	> 100 µM (inactive)	> 100 µM (inactive)
COc1ccc(/C=C2\CCC(C)/C(=C\c3ccc(OC)c(OC)c3)C2=O)cc1OC (stereo not drawn)	2.11 µM (inactive)	1.73 µM (inactive)	4.65 µM (inactive)	–	13.6 µM (inactive)	5.06 µM (inactive)	7.29 µM (inactive)	5.87 µM (inactive)	5.11 µM (inactive)	3.5 µM (inactive)	2.13 µM (inactive)	–	–	4.79 µM (inactive)	9.2 µM (inactive)	3.59 µM (inactive)	–	12.6 µM (inactive)	–	6.89 µM (inactive)
CN(C)CCNC(=O)c1ccc(NCCCN(C)CCCNc2ccc(C(=O)NCCN(C)C)c3nc4ccccc4c(O)c23)c2c(O)c3ccccc3nc12	< 0.012 µM (active)	< 0.0229 µM (active)	< 0.0317 µM (active)	< 0.01 µM (active)	0.0228 µM (active)	0.146 µM (active)	< 0.01 µM (active)	–	< 0.01 µM (active)	1.8 µM (inactive)	0.115 µM (active)	0.234 µM (active)	< 0.01 µM (active)	0.0466 µM (active)	< 0.0146 µM (active)	0.0422 µM (active)	< 0.01 µM (active)	0.0223 µM (active)	< 0.01 µM (active)	< 0.01 µM (active)
